This is an account of results in patent US9926282B2, “Phthalazinones and isoquinolinones as rock inhibitors” (BRISTOL-MYERS SQUIBB COMPANY, priority 2013, dated 2018).

One assay has as its target ROCK1 (Homo sapiens (Human), UniProt Q13464). Nature of the assay: ROCK assay (LABCHIP peptide phosphorylation), ROCK1. Type of assay: biochemical. Conditions: 5 μM ATP, 1.5 μM peptide substrate; read-out: ROCK1 IC50.
Another assay concerns the target ROCK2 (Homo sapiens (Human), UniProt O75116). Nature of the assay: ROCK assay (LABCHIP peptide phosphorylation), ROCK2. Type of assay: biochemical. To be noted: 5 μM ATP, 1.5 μM peptide substrate.

Sequence of ROCK1 (Q13464 whole entry, species assumed): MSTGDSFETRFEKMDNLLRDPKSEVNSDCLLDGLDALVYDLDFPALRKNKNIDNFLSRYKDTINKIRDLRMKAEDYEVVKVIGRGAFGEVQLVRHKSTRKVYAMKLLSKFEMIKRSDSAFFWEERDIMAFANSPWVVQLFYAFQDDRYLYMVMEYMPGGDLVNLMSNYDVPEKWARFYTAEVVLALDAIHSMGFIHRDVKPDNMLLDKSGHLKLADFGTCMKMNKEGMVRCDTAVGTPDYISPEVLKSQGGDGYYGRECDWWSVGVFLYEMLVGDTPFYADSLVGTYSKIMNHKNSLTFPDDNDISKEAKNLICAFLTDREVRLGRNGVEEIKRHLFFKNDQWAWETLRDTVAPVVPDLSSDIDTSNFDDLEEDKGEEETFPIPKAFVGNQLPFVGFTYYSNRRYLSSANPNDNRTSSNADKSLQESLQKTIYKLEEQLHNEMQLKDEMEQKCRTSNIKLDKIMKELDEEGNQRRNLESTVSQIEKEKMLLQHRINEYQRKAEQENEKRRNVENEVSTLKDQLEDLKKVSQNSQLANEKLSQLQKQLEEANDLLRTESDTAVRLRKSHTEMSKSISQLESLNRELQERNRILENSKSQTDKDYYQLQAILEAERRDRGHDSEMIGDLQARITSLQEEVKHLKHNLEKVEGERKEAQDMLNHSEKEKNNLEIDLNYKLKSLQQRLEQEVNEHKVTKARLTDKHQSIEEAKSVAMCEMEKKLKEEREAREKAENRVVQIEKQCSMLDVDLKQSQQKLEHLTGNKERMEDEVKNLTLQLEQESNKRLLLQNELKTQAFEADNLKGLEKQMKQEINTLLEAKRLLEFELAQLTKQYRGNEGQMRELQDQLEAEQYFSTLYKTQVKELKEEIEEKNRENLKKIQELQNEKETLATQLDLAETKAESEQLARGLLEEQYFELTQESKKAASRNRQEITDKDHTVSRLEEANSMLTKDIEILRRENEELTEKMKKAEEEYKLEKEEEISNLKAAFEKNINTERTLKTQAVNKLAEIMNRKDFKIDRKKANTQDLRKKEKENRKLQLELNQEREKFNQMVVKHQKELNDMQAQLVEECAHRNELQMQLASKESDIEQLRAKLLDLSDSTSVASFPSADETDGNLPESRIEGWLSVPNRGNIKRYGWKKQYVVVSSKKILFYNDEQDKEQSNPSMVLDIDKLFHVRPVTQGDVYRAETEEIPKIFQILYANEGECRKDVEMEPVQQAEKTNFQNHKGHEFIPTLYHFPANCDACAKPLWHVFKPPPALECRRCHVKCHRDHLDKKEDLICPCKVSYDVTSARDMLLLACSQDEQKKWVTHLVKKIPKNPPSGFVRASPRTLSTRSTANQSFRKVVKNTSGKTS
Sequence of ROCK2 (O75116 whole entry, species assumed): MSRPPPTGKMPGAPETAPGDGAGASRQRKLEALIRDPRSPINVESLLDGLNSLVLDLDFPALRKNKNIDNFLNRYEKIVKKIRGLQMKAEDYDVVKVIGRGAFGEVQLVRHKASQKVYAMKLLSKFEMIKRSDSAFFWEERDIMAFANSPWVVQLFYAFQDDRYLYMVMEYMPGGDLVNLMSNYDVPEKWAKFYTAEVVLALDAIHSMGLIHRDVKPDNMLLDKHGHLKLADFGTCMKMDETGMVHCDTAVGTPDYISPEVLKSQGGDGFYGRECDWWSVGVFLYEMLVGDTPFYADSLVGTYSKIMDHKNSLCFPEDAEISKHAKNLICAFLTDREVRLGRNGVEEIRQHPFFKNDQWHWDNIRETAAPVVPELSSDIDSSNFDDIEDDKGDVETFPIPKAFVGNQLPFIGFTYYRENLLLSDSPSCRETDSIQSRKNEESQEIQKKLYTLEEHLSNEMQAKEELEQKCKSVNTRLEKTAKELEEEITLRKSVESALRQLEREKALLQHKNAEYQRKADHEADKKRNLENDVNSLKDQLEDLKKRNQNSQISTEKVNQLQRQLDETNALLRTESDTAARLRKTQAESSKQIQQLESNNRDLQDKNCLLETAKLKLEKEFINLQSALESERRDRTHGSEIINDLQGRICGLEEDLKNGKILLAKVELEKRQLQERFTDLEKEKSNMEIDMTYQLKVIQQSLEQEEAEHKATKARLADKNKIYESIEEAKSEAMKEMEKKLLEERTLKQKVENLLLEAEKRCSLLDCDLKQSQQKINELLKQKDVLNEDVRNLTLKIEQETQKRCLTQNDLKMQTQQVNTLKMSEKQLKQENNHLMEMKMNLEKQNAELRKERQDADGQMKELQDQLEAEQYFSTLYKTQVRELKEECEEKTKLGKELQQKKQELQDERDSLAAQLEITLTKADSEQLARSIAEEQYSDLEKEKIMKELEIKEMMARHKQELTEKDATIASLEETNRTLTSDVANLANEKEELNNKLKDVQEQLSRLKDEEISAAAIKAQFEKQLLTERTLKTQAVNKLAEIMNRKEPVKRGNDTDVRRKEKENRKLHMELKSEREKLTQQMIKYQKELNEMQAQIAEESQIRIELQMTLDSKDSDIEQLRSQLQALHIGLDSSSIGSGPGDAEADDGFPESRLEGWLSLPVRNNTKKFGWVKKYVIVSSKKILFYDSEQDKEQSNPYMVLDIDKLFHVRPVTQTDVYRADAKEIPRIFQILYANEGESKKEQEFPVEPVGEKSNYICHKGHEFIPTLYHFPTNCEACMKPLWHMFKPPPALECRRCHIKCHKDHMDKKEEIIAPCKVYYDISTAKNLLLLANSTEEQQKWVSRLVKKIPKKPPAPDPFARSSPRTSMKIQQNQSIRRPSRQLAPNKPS

On to `CN1CCN(C(=O)c2ccc3c(c2)N(C(=O)Cc2ccc(-c4n[nH]c(=O)c5ccccc45)cc2)CC3)CC1` [Example 292, 4-(4-{2-[6-(4-methylpiperazine-1-carbonyl)-2,3-dihydro-1H-indol-1-yl]-2-oxoethyl}phenyl)-1,2-dihydrophthalazin-1-one], for which the IC50 at ROCK1 was in the range of 101 to 1000 nM; against ROCK2, 0.1 to 100 nM.
The matching figures for `O=C(Cc1ccc(-c2c[nH]c(=O)c3ccccc23)c(F)c1)N1CCc2ccccc21` [Example 287, 4-(2-Fluoro-4-(2-(indolin-1-yl)-2-oxoethyl)phenyl)isoquinolin-1 (2H)-one]: 0.1 to 100 nM and 0.1 to 100 nM.
On the same counts, the results for `O=C(Nc1ccc(-c2n[nH]c(=O)c3ccccc23)cc1)c1nn(Cc2ccccc2)c2ccccc12` [Example 99, 1-benzyl-N-[4-(4-oxo-3,4-dihydrophthalazin-1-yl)phenyl]-1H-indazole-3-carboxamide] are 0.1 to 100 nM and 0.1 to 100 nM.
For the compound `Cc1noc(-c2ccc(CO)cc2)c1C(=O)Nc1ccc(-c2n[nH]c(=O)c3ccccc23)cc1` [Example 224, 5-[4-(hydroxymethyl)phenyl]-3-methyl-N-[4-(4-oxo-3,4-dihydrophthalazin-1-yl)phenyl]-1,2-oxazole-4-carboxamide], the 50% inhibitory concentration (IC50) at ROCK1 and against ROCK2 was 0.1 to 100 nM each time.
Turning to `CC(C)(O)Cn1nc(C(=O)Nc2ccc(-c3n[nH]c(=O)c4ccccc34)c(Cl)c2)c2ccccc21` [Example 315, N-[3-chloro-4-(4-oxo-3,4-dihydrophthalazin-1-yl)phenyl]-1-(2-hydroxy-2-methylpropyl)-1H-indazole-3-carboxamide], the concentration for half-maximal inhibition (IC50) at ROCK1 and at ROCK2 was 0.1 to 100 nM each time.
For the compound `CN1CCN(C(=O)COc2ccc3c(c2)N(C(=O)Cc2ccc(-c4n[nH]c(=O)c5ccccc45)cc2)CC3)CC1` [Example 299, 4-(4-(2-(6-(2-(4-Methylpiperazin-1-yl)-2-oxoethoxy)indolin-1-yl)-2-oxoethyl)phenyl)phthalazin-1(2H)-one], the IC50 at ROCK1 was 101 to 1000 nM; at ROCK2, 0.1 to 100 nM.
The matching figures for `O=C(Nc1ccc(-c2n[nH]c(=O)c3ccccc23)cc1)c1cnn(CCC(F)(F)F)c1` [Example 398, N-(4-(4-Oxo-3,4-dihydrophthalazin-1-yl)phenyl)-1-(3,3,3-trifluoropropyl)-1H-pyrazole-4-carboxamide]: 101 to 1000 nM and 0.1 to 100 nM.
The matching figures for `CC(C)(O)COc1ccc2c(C(=O)Nc3ccc(-c4n[nH]c(=O)c5ccccc45)cc3)cnn2c1` [Example 172, 6-(2-hydroxy-2-methylpropoxy)-N-[4-(4-oxo-3,4-dihydrophthalazin-1-yl)phenyl]pyrazolo[1,5-a]pyridine-3-carboxamide]: 0.1 to 100 nM and 0.1 to 100 nM.
The matching figures for `CC(C)Oc1ccc2c(c1)CCN2C(=O)Cc1ccc(-c2n[nH]c(=O)c3ccccc23)cc1` [Example 273, 4-(4-{2-oxo-2-[5-(propan-2-yloxy)-2,3-dihydro-1H-indol-1-yl]ethyl}phenyl)-1,2-dihydrophthalazin-1-one]: 101 to 1000 nM and 0.1 to 100 nM.
For the compound `COc1cccc(-n2cc(C(=O)Nc3ccc(-c4n[nH]c(=O)c5ccccc45)cc3)cn2)c1` [Example 203, 1-(3-methoxyphenyl)-N-[4-(4-oxo-3,4-dihydrophthalazin-1-yl)phenyl]-1H-pyrazole-4-carboxamide], the IC50 is 101 to 1000 nM at ROCK1 and 0.1 to 100 nM at ROCK2.
On the same counts, the results for `O=C(Nc1ccc(-c2n[nH]c(=O)c3ccccc23)cc1)c1cnn2cccnc12` [Example 113, N-[4-(4-oxo-3,4-dihydrophthalazin-1-yl)phenyl]pyrazolo[1,5-a]pyrimidine-3-carboxamide] are 101 to 1000 nM and 101 to 1000 nM.
The matching figures for `CN(C)c1ccc(C(=O)Nc2ccc(-c3c[nH]c(=O)c4ccccc34)cc2)cc1` [Example 245, 4-(Dimethylamino)-N-(4-(1-oxo-1,2-dihydroisoquinolin-4-yl)phenyl)benzamide]: 0.1 to 100 nM and 0.1 to 100 nM.
On the same counts, the results for `Cn1nc(C(F)(F)F)cc1C(=O)Nc1ccc(-c2n[nH]c(=O)c3ccccc23)cc1` [Example 408, 1-Methyl-N-(4-(4-oxo-3,4-dihydrophthalazin-1-yl)phenyl)-3-(trifluoromethyl)-1H-pyrazole-5-carboxamide] are 101 to 1000 nM and 0.1 to 100 nM.
With `O=C(Nc1ccc(-c2n[nH]c(=O)c3ccccc23)cc1)c1cn(C2CCNCC2)nn1` [Example 372, N-(4-(4-Oxo-3,4-dihydrophthalazin-1-yl)phenyl)-1-(piperidin-4-yl)-1H-1,2,3-triazole-4-carboxamide], the half-inhibitory concentration (IC50) on ROCK1 and on ROCK2 was 101 to 1000 nM throughout.
Turning to `Cc1ccc(N2CC(C(=O)Nc3ccc(-c4n[nH]c(=O)c5ccccc45)cc3)CC2=O)cc1` (stereo not drawn) [Example 210, 1-(4-methylphenyl)-5-oxo-N-[4-(4-oxo-3,4-dihydrophthalazin-1-yl)phenyl]pyrrolidine-3-carboxamide], the 50% inhibitory concentration (IC50) on ROCK1 and at ROCK2 was 101 to 1000 nM in each case.
Take `CC(C)=Cn1nc(C(=O)Nc2ccc(-c3n[nH]c(=O)c4ccccc34)cc2)c2cc(F)ccc21` [Example 178, 5-fluoro-1-(2-methylprop-1-en-1-yl)-N-[4-(4-oxo-3,4-dihydrophthalazin-1-yl)phenyl]-1H-indazole-3-carboxamide]: the IC50 at ROCK1 was in the range of 101 to 1000 nM; at ROCK2, 0.1 to 100 nM.
The matching figures for `CC(C)(C)n1cc(NC(=O)c2ccncc2)c(C(=O)Nc2ccc(-c3n[nH]c(=O)c4ccccc34)cc2)n1` [Example 234, N-(1-tert-butyl-3-{[4-(4-oxo-3,4-dihydrophthalazin-1-yl)phenyl]carbamoyl}-1H-pyrazol-4-yl)pyridine-4-carboxamide]: 101 to 1000 nM and 0.1 to 100 nM.
On the same counts, the results for `Cc1cc(NC(=O)c2cnn3cc(OCCN4CCCC4)ccc23)ccc1-c1n[nH]c(=O)c2ccccc12` [Example 325, N-[3-methyl-4-(4-oxo-3,4-dihydrophthalazin-1-yl)phenyl]-6-[2-(pyrrolidin-1-yl)ethoxy] pyrazolo[1,5-a]pyridine-3-carboxamide] are 101 to 1000 nM and 0.1 to 100 nM.
On the same counts, the results for `CC(C)(O)COc1ccc2c(c1)N(C(=O)Cc1ccc(-c3c[nH]c(=O)c4ccccc34)cc1)CC2` [Example 288, 4-(4-(2-(6-(2-Hydroxy-2-methylpropoxy)indolin-1-yl)-2-oxoethyl)phenyl)isoquinolin-1(2H)-one] are 0.1 to 100 nM and 0.1 to 100 nM.
As for `O=C(Nc1ccc(-c2n[nH]c(=O)c3ccccc23)cc1)C1Cc2cc(O)ccc2O1` (stereo not drawn) [Example 106, 5-hydroxy-N-[4-(4-oxo-3,4-dihydrophthalazin-1-yl)phenyl]-2,3-dihydro-1-benzofuran-2-carboxamide], the 50% inhibitory concentration (IC50) is 1000 to 50000 nM at ROCK1 and 0.1 to 100 nM against ROCK2.
In the case of `O=C(Cc1ccc(-c2n[nH]c(=O)c3ccccc23)cc1)N1CCc2ccc(OCCN3CCCC3)cc21` [Example 286, 4-[4-(2-oxo-2-{6-[2-(pyrrolidin-1-yl)ethoxy]-2,3-dihydro-1H-indol-1-yl}ethyl)phenyl]-1,2-dihydrophthalazin-1-one], the IC50 at ROCK1 is 101 to 1000 nM; against ROCK2 it was 0.1 to 100 nM.

The IC50 is the concentration that gives 50% inhibition.
